What is called Ki is a dissociation constant, usually derived from enzyme kinetics or from competition with a known ligand.

Chain of GST-tagged-Wee1 kinase (P30291 whole entry): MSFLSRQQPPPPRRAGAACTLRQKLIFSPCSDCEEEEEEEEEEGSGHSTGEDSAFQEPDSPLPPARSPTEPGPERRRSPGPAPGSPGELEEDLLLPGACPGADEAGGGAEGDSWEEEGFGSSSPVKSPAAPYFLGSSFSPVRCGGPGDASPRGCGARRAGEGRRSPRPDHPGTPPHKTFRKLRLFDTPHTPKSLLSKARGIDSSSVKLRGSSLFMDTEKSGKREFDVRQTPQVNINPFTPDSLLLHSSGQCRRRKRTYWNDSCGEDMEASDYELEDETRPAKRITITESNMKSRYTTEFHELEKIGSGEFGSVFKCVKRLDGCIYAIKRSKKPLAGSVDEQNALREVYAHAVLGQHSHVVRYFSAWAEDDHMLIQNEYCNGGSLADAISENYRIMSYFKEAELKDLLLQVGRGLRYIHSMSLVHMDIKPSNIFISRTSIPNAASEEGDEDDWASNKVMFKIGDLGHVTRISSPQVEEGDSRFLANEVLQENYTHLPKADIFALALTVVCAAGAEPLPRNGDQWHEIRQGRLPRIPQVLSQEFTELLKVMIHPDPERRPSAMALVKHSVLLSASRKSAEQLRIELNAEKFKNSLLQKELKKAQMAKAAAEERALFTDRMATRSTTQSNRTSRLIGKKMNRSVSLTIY

The first experiment concerns the target GST-tagged-Wee1 kinase (Homo sapiens, UniProt P30291). Kind of experiment: Wee1 time-resolved fluorescence equilibrium binding assay (displacement of Oregon Green-labeled ATP-competitive kinase probe).
Conditions: not given
As for the experimental part:
Wee1 kinase was assayed using a time-resolved fluorescence equilibrium binding assay monitoring displacement of a rapidly reversible Oregon Green-labeled ATP-competitive kinase probe (N-(2-(2-(2-(4-(4-(5-chloro-4-(2-(1-hydroxycyclobutyl)thiazol-5-yl)-1H-pyrrolo[2,3-b]pyridin-2-yl)phenyl)piperazin-1-yl)ethoxy)ethoxy)ethyl)-2′,7′-difluoro-3′,6′-dihydroxy-3-oxo-3H-spiro[isobenzofuran-1,9′-xanthene]-5-carboxamide) by competitive Wee1 inhibitors.
As for `CN1Cc2cc(Nc3ncc4c(=O)n(-c5c(Cl)cccc5Cl)nc(-c5cn(C)cn5)c4n3)ccc2C2(CC2)C1` [Example 339, 6-(2,6-dichlorophenyl)-2-[(2′-methyl-2′,3′-dihydro-1′H-spiro[cyclopropane-1,4′-isoquinolin]-7′-yl)amino]-8-(1-methyl-1H-imidazol-4-yl)pyrimido[4,5-d]pyridazin-5(6H)-one], the Ki turned out to be 0.71 nM. As for `Cc1nn(-c2ncccc2Cl)c(=O)c2cnc(Nc3ccc4c(c3)CC(N(C)C)C4)nc12` (stereo not shown) [Example 367, 6-(3-chloropyridin-2-yl)-2-{[2-(dimethylamino)-2,3-dihydro-1H-inden-5-yl]amino}-8-methylpyrimido[4,5-d]pyridazin-5(6H)-one], the Ki amounted to 3.7 nM. Same read-out and setting: then `CC1(C)CNCc2cc(Nc3ncc4c(=O)n(-c5cccc6ccccc56)nc(-c5ccccn5)c4n3)ccc21` [Example 306, 2-[(4,4-dimethyl-1,2,3,4-tetrahydroisoquinolin-7-yl)amino]-6-(naphthalen-1-yl)-8-(pyridin-2-yl)pyrimido[4,5-d]pyridazin-5(6H)-one], with 50 nM.

For `CN1CCN(c2ccc(Nc3ncc4c(=O)n(C)nc(C5CC(F)(F)C5)c4n3)cc2)CC1` [Example 187, 8-(3,3-difluorocyclobutyl)-6-methyl-2-{[4-(4-methylpiperazin-1-yl)phenyl]amino}pyrimido[4,5-d]pyridazin-5(6H)-one], the Ki is 1800 nM. The same measure, in the same setting: under `CC1(C)CNCc2cc(Nc3ncc4c(=O)n(-c5ccncc5)nc(-c5ccccn5)c4n3)ccc21` [Example 238, 2-[(4,4-dimethyl-1,2,3,4-tetrahydroisoquinolin-7-yl)amino]-8-(pyridin-2-yl)-6-(pyridin-4-yl)pyrimido[4,5-d]pyridazin-5(6H)-one] stands 34 nM. Same read-out and setting: then `O=c1c2cnc(Nc3ccc(S(=O)(=O)N4CCOCC4)cc3)nc2c(-c2ccccc2)nn1-c1ccccc1Cl` [Example 255, 6-(2-chlorophenyl)-2-{[4-(morpholin-4-ylsulfonyl)phenyl]amino}-8-phenylpyrimido[4,5-d]pyridazin-5(6H)-one], with over 3140 nM.

With `Cc1nn(-c2c(Cl)cccc2Cl)c(=O)c2cnc(Nc3ccc4c(c3)CCN(S(C)(=O)=O)C4)nc12` [Example 450, 6-(2,6-dichlorophenyl)-8-methyl-2-{[2-(methylsulfonyl)-1,2,3,4-tetrahydroisoquinolin-6-yl]amino}pyrimido[4,5-d]pyridazin-5(6H)-one], the affinity, expressed as Ki, was 0.61 nM. Same read-out and setting: under `O=c1c2cnc(Nc3ccc(N4CCNCC4)cc3)nc2c(-c2ccccn2)nn1-c1ccccn1` [Example 285, 2-{[4-(piperazin-1-yl)phenyl]amino}-6,8-di(pyridin-2-yl)pyrimido[4,5-d]pyridazin-5(6H)-one] stands 8.4 nM; under `CCCc1nn(C)c(=O)c2cnc(Nc3ccc(N4CCN(C)CC4)cc3)nc12` [Example 11, 6-methyl-2-{[4-(4-methylpiperazin-1-yl)phenyl]amino}-8-propylpyrimido[4,5-d]pyridazin-5(6H)-one], 730 nM.

Turning to `Cc1nn(-c2c(Cl)cccc2Cl)c(=O)c2cnc(Nc3ccc4c(c3)C(C)(C)N(C)CC4)nc12` [Example 443, 6-(2,6-dichlorophenyl)-8-methyl-2-[(1,1,2-trimethyl-1,2,3,4-tetrahydroisoquinolin-7-yl)amino]pyrimido[4,5-d]pyridazin-5(6H)-one], the Ki was 0.3 nM. The same measure, in the same setting: then `Cc1nn(-c2c(Cl)cccc2Cl)c(=O)c2cnc(Nc3cc4c(cc3Cl)CNCC4)nc12` [Example 472, 2-[(7-chloro-1,2,3,4-tetrahydroisoquinolin-6-yl)amino]-6-(2,6-dichlorophenyl)-8-methylpyrimido[4,5-d]pyridazin-5(6H)-one], with 2.3 nM; and `O=c1c2cnc(Nc3ccc(N4CCNCC4)cc3)nc2c(-c2cccc(CN3CCCCC3)c2)nn1-c1c(Cl)cccc1Cl` [Example 237, 6-(2,6-dichlorophenyl)-2-{[4-(piperazin-1-yl)phenyl]amino}-8-[3-(piperidin-1-ylmethyl)phenyl]pyrimido[4,5-d]pyridazin-5(6H)-one], with 0.2 nM; and `Cc1nn(-c2c(Cl)cccc2Cl)c(=O)c2cnc(Nc3cccc(N4CCNCC4)c3)nc12` [Example 506, 6-(2,6-dichlorophenyl)-8-methyl-2-{[3-(piperazin-1-yl)phenyl]amino}pyrimido[4,5-d]pyridazin-5(6H)-one], with 0.54 nM. On the same count and under the same terms, then `CN1CCN(c2ccc(Nc3ncc4c(=O)n(-c5ccccc5)nc(-c5ccc(Cl)cc5Cl)c4n3)cc2)CC1` [Example 42, 8-(2,4-dichlorophenyl)-2-{[4-(4-methylpiperazin-1-yl)phenyl]amino}-6-phenylpyrimido[4,5-d]pyridazin-5(6H)-one], with 400 nM; and `CN1CCN(c2ccc(Nc3ncc4c(=O)n(-c5ccccc5Cl)nc(-c5ccc(Cl)cc5Cl)c4n3)cc2)CC1` [Example 38, 6-(2-chlorophenyl)-8-(2,4-dichlorophenyl)-2-{[4-(4-methylpiperazin-1-yl)phenyl]amino}pyrimido[4,5-d]pyridazin-5(6H)-one], with 24 nM. On the same count and under the same terms, then `CN1Cc2cc(Nc3ncc4c(=O)n(C5CCCCC5)nc(-c5ccccn5)c4n3)ccc2C(C)(C)C1` [Example 262, 6-cyclohexyl-8-(pyridin-2-yl)-2-[(2,4,4-trimethyl-1,2,3,4-tetrahydroisoquinolin-7-yl)amino]pyrimido[4,5-d]pyridazin-5(6H)-one], with 590 nM; and `CC(=O)N1Cc2cc(Nc3ncc4c(=O)n(-c5c(Cl)cccc5Cl)nc(C)c4n3)ccc2C2(CC2)C1` [Example 417, 2-[(2′-acetyl-2′,3′-dihydro-1′H-spiro[cyclopropane-1,4′-isoquinolin]-7′-yl)amino]-6-(2,6-dichlorophenyl)-8-methylpyrimido[4,5-d]pyridazin-5(6H)-one], with 0.31 nM.

Consider `Cc1ccccc1-n1nc(-c2cccs2)c2nc(Nc3ccc(N4CCCC4=O)cc3)ncc2c1=O` [Example 128, 6-(2-methylphenyl)-2-{[4-(2-oxopyrrolidin-1-yl)phenyl]amino}-8-(2-thienyl)pyrimido[4,5-d]pyridazin-5(6H)-one], for which the Ki turned out to be 6 nM. The same measure, in the same setting: under `CN1CCCC(c2ccc(Nc3ncc4c(=O)n(-c5c(Cl)cccc5Cl)nc(C(F)F)c4n3)cc2)C1` (stereo not shown) [Example 486, 6-(2,6-dichlorophenyl)-8-(difluoromethyl)-2-{[4-(1-methylpiperidin-3-yl)phenyl]amino}pyrimido[4,5-d]pyridazin-5(6H)-one] stands 0.13 nM. Same read-out and setting: then `CN(C)CCn1cc(-c2nn(-c3c(Cl)cccc3Cl)c(=O)c3cnc(Nc4ccc(N5CCN(C)CC5)cc4)nc23)cn1` [Example 212, 6-(2,6-dichlorophenyl)-8-{1-[2-(dimethylamino)ethyl]-1H-pyrazol-4-yl}-2-{[4-(4-methylpiperazin-1-yl)phenyl]amino}pyrimido[4,5-d]pyridazin-5(6H)-one], with 0.6 nM; and `CN1CCN(c2ccc(Nc3ncc4c(=O)n(-c5c(Cl)cncc5Cl)nc(-c5ccccn5)c4n3)cc2)CC1` [Example 362, 6-(3,5-dichloropyridin-4-yl)-2-{[4-(4-methylpiperazin-1-yl)phenyl]amino}-8-(pyridin-2-yl)pyrimido[4,5-d]pyridazin-5(6H)-one], with 1.8 nM.

The experiment is the same for the next values; noted with them: read-out: Wee-1 inhibition Ki.
On to “6-(2,6-dichlorocyclohexa-1,5-dien-1-yl)-2-[(3-{[2-(dimethylamino)ethyl]amino}phenyl)amino]-8-methylpyrimido[4,5-d]pyridazin-5(6H)-one [Example 514]”, for which the Ki is 0.41 nM.

Source of the values: patent US8796289B2 (AbbVie Inc., priority 2011, dated 2014).
